Measured values as given in PubChem BioAssay (NCI).
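Cells were grown in 96-well plates and exposed to each compound for 48 hours at five concentrations; endpoints were interpolated linearly between bracketing concentrations, or set to the highest concentration if not reached. GI50 is the concentration that inhibits growth by half. TGI: total growth inhibition.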

How the values were obtained:
Test in all cases: NCI tumour cell line growth inhibition, 48 h
OVCAR-3 ovarian = system: OVCAR-3 ovarian
KM20L2 colon = system: KM20L2 colon
M19-MEL melanoma = system: M19-MEL melanoma
RPMI-8226 leukemia = system: RPMI-8226 leukemia
NCI-H460 lung = system: NCI-H460 lung
UACC-257 melanoma = system: UACC-257 melanoma
HOP-62 NSCLC = system: HOP-62 NSCLC
SNB-78 CNS = system: SNB-78 CNS
TK-10 renal = system: TK-10 renal
LOX IMVI melanoma = system: LOX IMVI melanoma
NCI-H522 lung = system: NCI-H522 lung
LXFL 529 NSCLC = system: LXFL 529 NSCLC

Molecule `Cc1[nH]c2ccccc2c1C1CC(=O)NC1=O` (stereo not drawn) has a TGI (OVCAR-3 ovarian) greater than 100 µM, a TGI (KM20L2 colon) greater than 100 µM and a TGI (M19-MEL melanoma) greater than 100 µM. The TGI (RPMI-8226 leukemia) was greater than 100 µM, the TGI (NCI-H460 lung) was greater than 100 µM and the TGI (UACC-257 melanoma) was greater than 100 µM. It also gave a TGI (HOP-62 NSCLC) greater than 100 µM, a TGI (SNB-78 CNS) greater than 100 µM and a TGI (TK-10 renal) greater than 100 µM.
For `O=C(COc1ccc(Cl)cc1)N1N=C(c2ccc([N+](=O)[O-])o2)CC1(O)c1ccccc1` (stereo not drawn), the TGI (LOX IMVI melanoma) was 23.8 µM, the TGI (OVCAR-3 ovarian) was 17.2 µM and the TGI (KM20L2 colon) was 30.4 µM. It also gave a TGI (M19-MEL melanoma) of 10.1 µM, a TGI (NCI-H522 lung) of 38.6 µM and a TGI (RPMI-8226 leukemia) of 18.3 µM. The TGI (NCI-H460 lung) was 23.1 µM, the TGI (UACC-257 melanoma) was 15.6 µM and the TGI (HOP-62 NSCLC) was 35.8 µM. The TGI (SNB-78 CNS) was 37.6 µM and the TGI (TK-10 renal) was 20.6 µM.
With `O=C(O)CCSC(=O)Nc1cccc([N+](=O)[O-])c1` the TGI (LOX IMVI melanoma) was greater than 100 µM, the TGI (OVCAR-3 ovarian) was greater than 100 µM and the TGI (RPMI-8226 leukemia) was greater than 100 µM. For the same molecule, the TGI (NCI-H460 lung) was greater than 100 µM, the TGI (UACC-257 melanoma) was greater than 100 µM and the TGI (LXFL 529 NSCLC) was greater than 100 µM. The TGI (HOP-62 NSCLC) was greater than 100 µM, the TGI (SNB-78 CNS) was greater than 100 µM and the TGI (TK-10 renal) was greater than 100 µM.
`O=C1/C=C/[C@@H](O)[C@@H]2C[C@@H](O)C[C@H]2/C=C/CCC[C@H](CO)O1` was tested, and the GI50 (LOX IMVI melanoma) was 0.832 µM, the TGI (LOX IMVI melanoma) was 3.81 µM and the GI50 (OVCAR-3 ovarian) was 2.2 µM. The TGI (OVCAR-3 ovarian) was greater than 100 µM, the GI50 (NCI-H522 lung) was 2.67 µM and the TGI (NCI-H522 lung) was 7.74 µM. The GI50 (RPMI-8226 leukemia) was 3.32 µM, the TGI (RPMI-8226 leukemia) was greater than 100 µM and the GI50 (NCI-H460 lung) was 3.21 µM. The TGI (NCI-H460 lung) was greater than 100 µM, the GI50 (UACC-257 melanoma) was 1.68 µM and the TGI (UACC-257 melanoma) was greater than 100 µM. For the same molecule, the GI50 (HOP-62 NSCLC) was 3.66 µM, the TGI (HOP-62 NSCLC) was greater than 100 µM and the GI50 (TK-10 renal) was 3.06 µM. It also gave a TGI (TK-10 renal) of 10.9 µM.
Work on `C=C1SC(=Nc2ccccc2Cl)N(C(=O)c2sc3ccccc3c2Cl)C1(C)C` yielded a GI50 (LOX IMVI melanoma) of 9.62 µM, a TGI (LOX IMVI melanoma) greater than 100 µM and a GI50 (OVCAR-3 ovarian) of 7.55 µM. For the same molecule, the TGI (OVCAR-3 ovarian) was greater than 56.3 µM, the GI50 (NCI-H522 lung) was 3.03 µM and the TGI (NCI-H522 lung) was 26.8 µM. It also gave a GI50 (RPMI-8226 leukemia) of 2.44 µM, a GI50 (NCI-H460 lung) of 4.14 µM and a TGI (NCI-H460 lung) greater than 57.1 µM. It also gave a GI50 (UACC-257 melanoma) of 29.2 µM, a TGI (UACC-257 melanoma) greater than 100 µM and a GI50 (HOP-62 NSCLC) of 10.5 µM. It also gave a TGI (HOP-62 NSCLC) greater than 51.1 µM, a GI50 (TK-10 renal) of 5.57 µM and a TGI (TK-10 renal) of 37.1 µM.
In the case of `Cc1cccc2c1O/C(=C\c1ncc([N+](=O)[O-])n1C)C2=O`, the GI50 (LOX IMVI melanoma) was 0.092 µM, the TGI (LOX IMVI melanoma) was 0.387 µM and the GI50 (OVCAR-3 ovarian) was 0.254 µM. It also gave a TGI (OVCAR-3 ovarian) of 0.864 µM, a GI50 (NCI-H522 lung) of 0.188 µM and a TGI (NCI-H522 lung) of 0.523 µM. For the same molecule, the GI50 (RPMI-8226 leukemia) was 0.589 µM, the TGI (RPMI-8226 leukemia) was 2.01 µM and the GI50 (NCI-H460 lung) was 0.132 µM. The TGI (NCI-H460 lung) was 0.581 µM, the GI50 (UACC-257 melanoma) was 0.542 µM and the TGI (UACC-257 melanoma) was 5.2 µM. For the same molecule, the GI50 (HOP-62 NSCLC) was 0.599 µM, the TGI (HOP-62 NSCLC) was 1.97 µM and the GI50 (TK-10 renal) was 0.257 µM. For the same molecule, the TGI (TK-10 renal) was 0.66 µM.
With `N=C1C(c2nc3ccccc3s2)=C(O)CN1c1ccc(Cl)cc1Cl` the GI50 (LOX IMVI melanoma) was 14.8 µM, the TGI (LOX IMVI melanoma) was 41.2 µM and the GI50 (OVCAR-3 ovarian) was 18.7 µM. The TGI (OVCAR-3 ovarian) was greater than 100 µM, the GI50 (NCI-H522 lung) was 11.2 µM and the TGI (NCI-H522 lung) was 35.2 µM. For the same molecule, the GI50 (RPMI-8226 leukemia) was 18.9 µM, the TGI (RPMI-8226 leukemia) was 62.1 µM and the GI50 (NCI-H460 lung) was 33.4 µM. It also gave a TGI (NCI-H460 lung) greater than 100 µM, a GI50 (UACC-257 melanoma) of 7 µM and a TGI (UACC-257 melanoma) of 45.3 µM. For the same molecule, the GI50 (HOP-62 NSCLC) was 13.9 µM, the TGI (HOP-62 NSCLC) was 38 µM and the GI50 (TK-10 renal) was 14.4 µM. For the same molecule, the TGI (TK-10 renal) was 42.8 µM.
`CCN(CC)C(=O)CNC(=O)OC(C)(C)C` showed a TGI (LOX IMVI melanoma) greater than 100 µM, a TGI (OVCAR-3 ovarian) greater than 100 µM and a TGI (KM20L2 colon) greater than 100 µM. The TGI (M19-MEL melanoma) was greater than 100 µM, the TGI (NCI-H522 lung) was greater than 100 µM and the TGI (RPMI-8226 leukemia) was greater than 100 µM. It also gave a TGI (NCI-H460 lung) greater than 100 µM, a TGI (UACC-257 melanoma) greater than 100 µM and a TGI (HOP-62 NSCLC) greater than 100 µM. The TGI (SNB-78 CNS) was greater than 100 µM and the TGI (TK-10 renal) was greater than 100 µM.
For `CC1OC(O[C@H]2/C=C/C=C/C=C/C=C/C=C/C=C/C=C/[C@H](C)[C@@H](O)[C@@H](C)[C@H](C)OC(=O)C[C@H](O)C[C@H](O)CC[C@@H](O)[C@H](O)C[C@H](O)C[C@]3(O)C[C@H](O)[C@@H](C(=O)O)[C@H](C2)O3)C(O)C(N)C1O` (stereo partly drawn), the GI50 (LOX IMVI melanoma) was 15.2 µM, the TGI (LOX IMVI melanoma) was greater than 50.7 µM and the TGI (OVCAR-3 ovarian) was 27.2 µM. For the same molecule, the TGI (NCI-H522 lung) was 20.9 µM, the GI50 (RPMI-8226 leukemia) was 23.9 µM and the TGI (RPMI-8226 leukemia) was 60.3 µM. It also gave a GI50 (NCI-H460 lung) of 19.1 µM, a TGI (NCI-H460 lung) of 40.4 µM and a GI50 (UACC-257 melanoma) of 12.2 µM. For the same molecule, the TGI (UACC-257 melanoma) was 40.4 µM, the GI50 (HOP-62 NSCLC) was 20.5 µM and the TGI (HOP-62 NSCLC) was 42.2 µM. For the same molecule, the GI50 (TK-10 renal) was 27.2 µM and the TGI (TK-10 renal) was 46.3 µM.
With `CC(C(=O)c1ccccc1)C1(O)C(=O)Nc2ccccc21` (stereo not drawn) the TGI (LOX IMVI melanoma) was greater than 100 µM, the TGI (OVCAR-3 ovarian) was greater than 100 µM and the TGI (KM20L2 colon) was greater than 100 µM. The TGI (M19-MEL melanoma) was greater than 100 µM, the TGI (NCI-H522 lung) was greater than 100 µM and the TGI (RPMI-8226 leukemia) was greater than 100 µM. The TGI (NCI-H460 lung) was greater than 100 µM, the TGI (UACC-257 melanoma) was greater than 100 µM and the TGI (HOP-62 NSCLC) was greater than 100 µM. It also gave a TGI (SNB-78 CNS) greater than 100 µM and a TGI (TK-10 renal) greater than 100 µM.
In the case of `N#C/C(=C/C=C/c1ccccc1)S(=O)c1ccccc1` (stereo not drawn), the GI50 (LOX IMVI melanoma) was 0.163 µM, the TGI (LOX IMVI melanoma) was 0.337 µM and the GI50 (OVCAR-3 ovarian) was 0.307 µM. It also gave a TGI (OVCAR-3 ovarian) of 1.13 µM, a GI50 (NCI-H522 lung) of 0.306 µM and a TGI (NCI-H522 lung) of 1.35 µM. The GI50 (RPMI-8226 leukemia) was 0.351 µM, the TGI (RPMI-8226 leukemia) was 1.32 µM and the GI50 (NCI-H460 lung) was 0.506 µM. For the same molecule, the TGI (NCI-H460 lung) was 2.92 µM, the GI50 (UACC-257 melanoma) was 0.845 µM and the TGI (UACC-257 melanoma) was 2.41 µM. The GI50 (HOP-62 NSCLC) was 1.29 µM, the TGI (HOP-62 NSCLC) was 5.36 µM and the GI50 (TK-10 renal) was 0.501 µM. It also gave a TGI (TK-10 renal) of 1.85 µM.
For `COc1ccc(C(=O)C(Br)C(Br)C(=O)O)cc1` (stereo not drawn), the TGI (LOX IMVI melanoma) was 54 µM, the TGI (OVCAR-3 ovarian) was 57.4 µM and the TGI (NCI-H522 lung) was 34.9 µM. For the same molecule, the TGI (RPMI-8226 leukemia) was 53.2 µM, the TGI (NCI-H460 lung) was greater than 100 µM and the TGI (UACC-257 melanoma) was greater than 100 µM. For the same molecule, the TGI (HOP-62 NSCLC) was greater than 100 µM and the TGI (TK-10 renal) was greater than 100 µM.
`CNC(=O)c1cncc(/C=C/c2c(C)cccc2C)c1` was tested, and the GI50 (LOX IMVI melanoma) was 16.2 µM, the TGI (LOX IMVI melanoma) was greater than 25 µM and the GI50 (OVCAR-3 ovarian) was greater than 25 µM. The TGI (OVCAR-3 ovarian) was greater than 25 µM, the GI50 (NCI-H522 lung) was greater than 17.8 µM and the TGI (NCI-H522 lung) was greater than 25 µM. The GI50 (RPMI-8226 leukemia) was greater than 25 µM, the TGI (RPMI-8226 leukemia) was greater than 25 µM and the GI50 (NCI-H460 lung) was greater than 25 µM. It also gave a TGI (NCI-H460 lung) greater than 25 µM, a GI50 (UACC-257 melanoma) greater than 25 µM and a TGI (UACC-257 melanoma) greater than 25 µM. The GI50 (HOP-62 NSCLC) was greater than 25 µM, the TGI (HOP-62 NSCLC) was greater than 25 µM and the GI50 (TK-10 renal) was greater than 20.9 µM. It also gave a TGI (TK-10 renal) greater than 25 µM.
